Target: T1, PI3Kγ (p101/p110γ protein) (Homo sapiens, UniProt P48736)
T1 construct: HA; made in house; host or cells: Spodoptera frugiperda (Sf9) cells, baculovirus co-infection
Experiment: PI3Kγ In Vitro Kinase Assay
Assay type: biochemical
Settings: purified recombinant p101/p110γ with G protein β1/γ2 subunits; 20 μM ATP, 25 μM PIP2; 20 minutes at room temperature
In short: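 Sf9-expressed, purified human p101/p110γ (2.7 nM) was activated by Gβ1/γ2 (57.7 nM) and reacted with 20 μM ATP plus [γ-32P]ATP on PIP2 (25 μM)/PE (300 μM) micelles with 10 mM MgCl2 in HEPES buffer. Reactions ran 20 min at room temperature. Filter-captured radiolabeled PIP3 was counted by scintillation.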

T1 sequence (P48736 whole entry, species assumed): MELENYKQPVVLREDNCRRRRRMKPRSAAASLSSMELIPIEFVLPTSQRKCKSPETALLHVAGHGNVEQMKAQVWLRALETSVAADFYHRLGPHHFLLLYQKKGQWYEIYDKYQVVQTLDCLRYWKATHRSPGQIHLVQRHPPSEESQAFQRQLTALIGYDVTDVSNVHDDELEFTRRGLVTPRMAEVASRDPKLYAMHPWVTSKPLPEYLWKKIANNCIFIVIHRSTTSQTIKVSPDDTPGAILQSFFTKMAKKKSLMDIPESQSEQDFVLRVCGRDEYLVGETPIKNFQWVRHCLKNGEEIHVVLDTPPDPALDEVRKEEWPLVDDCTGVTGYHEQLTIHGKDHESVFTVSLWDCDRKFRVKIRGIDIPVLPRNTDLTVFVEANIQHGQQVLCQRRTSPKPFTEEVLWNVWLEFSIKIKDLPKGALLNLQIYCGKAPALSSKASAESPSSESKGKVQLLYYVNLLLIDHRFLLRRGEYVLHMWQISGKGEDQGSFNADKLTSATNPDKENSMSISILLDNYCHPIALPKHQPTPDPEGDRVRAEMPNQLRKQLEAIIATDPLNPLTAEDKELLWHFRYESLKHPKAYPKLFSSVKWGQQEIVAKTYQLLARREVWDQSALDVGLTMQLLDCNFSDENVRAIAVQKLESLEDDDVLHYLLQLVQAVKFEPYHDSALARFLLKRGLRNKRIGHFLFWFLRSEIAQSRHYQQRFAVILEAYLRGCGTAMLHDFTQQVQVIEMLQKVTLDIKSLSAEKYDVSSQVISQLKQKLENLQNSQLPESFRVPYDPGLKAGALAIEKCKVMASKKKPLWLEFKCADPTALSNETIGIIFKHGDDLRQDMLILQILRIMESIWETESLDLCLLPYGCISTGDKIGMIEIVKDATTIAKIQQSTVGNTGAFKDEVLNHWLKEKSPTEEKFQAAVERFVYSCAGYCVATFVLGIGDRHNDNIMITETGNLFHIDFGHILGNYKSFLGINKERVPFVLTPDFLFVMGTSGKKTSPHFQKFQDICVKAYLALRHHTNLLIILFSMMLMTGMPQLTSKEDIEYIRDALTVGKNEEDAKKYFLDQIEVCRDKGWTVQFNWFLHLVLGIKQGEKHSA
T1 sequence (Q8WYR1 whole entry partner, species assumed): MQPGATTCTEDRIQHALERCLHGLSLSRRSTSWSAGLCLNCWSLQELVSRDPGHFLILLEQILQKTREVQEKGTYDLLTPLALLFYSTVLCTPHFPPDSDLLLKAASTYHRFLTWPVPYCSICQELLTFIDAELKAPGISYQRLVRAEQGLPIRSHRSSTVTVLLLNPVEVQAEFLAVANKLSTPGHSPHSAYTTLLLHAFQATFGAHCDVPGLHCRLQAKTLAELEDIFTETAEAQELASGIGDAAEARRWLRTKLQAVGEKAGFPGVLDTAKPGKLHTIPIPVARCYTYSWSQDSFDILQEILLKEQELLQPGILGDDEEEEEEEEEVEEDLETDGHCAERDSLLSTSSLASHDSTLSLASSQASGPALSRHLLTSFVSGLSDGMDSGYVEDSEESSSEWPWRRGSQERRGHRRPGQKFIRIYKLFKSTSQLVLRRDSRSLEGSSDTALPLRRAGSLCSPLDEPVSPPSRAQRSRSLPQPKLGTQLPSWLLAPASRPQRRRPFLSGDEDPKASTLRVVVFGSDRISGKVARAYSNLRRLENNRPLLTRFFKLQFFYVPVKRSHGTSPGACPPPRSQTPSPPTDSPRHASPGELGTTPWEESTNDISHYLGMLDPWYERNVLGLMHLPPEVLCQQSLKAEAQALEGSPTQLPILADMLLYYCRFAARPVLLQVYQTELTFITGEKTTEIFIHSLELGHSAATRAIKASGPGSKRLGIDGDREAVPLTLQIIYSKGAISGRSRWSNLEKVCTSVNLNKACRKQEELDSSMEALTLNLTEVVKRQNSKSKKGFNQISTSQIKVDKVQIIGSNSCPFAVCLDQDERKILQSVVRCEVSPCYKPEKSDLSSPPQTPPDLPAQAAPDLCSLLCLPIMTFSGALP

SMILES | IC50 [nM]
CC(C)(O)c1cc(CN2C(=O)COc3c(F)cc(C=C4SC(=S)NC4=O)cc32)ccc1F [Example 302, 8-Fluoro-4-[4-fluoro-3-(1-hydroxy-1-methyl-ethyl)-benzyl]-6-(4-oxo-2-thioxo-thiazolidin-5-ylidenemethyl)-4H-benzo[1,4]oxazin-3-one; Compound with Ethane-1,2-diamine] | 12
O=C1NC(=S)SC1=Cc1ccc2c(c1)N(Cc1ccc(F)cc1)C(=O)CO2 [Example 303, 4-(4-Fluoro-benzyl)-6-(4-oxo-2-thioxo-thiazolidin-5-ylidenemethyl)-4H-benzo[1,4]oxazin-3-one] | 2
CC(C)(O)c1cc(CN2C(=O)COc3ccc(C=C4SC(=S)NC4=O)cc32)ccc1F [Example 304, 4-[4-Fluoro-3-(1-hydroxy-1-methyl-ethyl)-benzyl]-6-(4-oxo-2-thioxo-thiazolidin-5-ylidenemethyl)-4H-benzo[1,4]oxazin-3-one; Compound with Ethane-1,2-diamine] | 8
CC(C)(O)c1cc(CN2C(=O)COc3ccc(C=C4SC(=O)NC4=O)cc32)ccc1F [Example 305, 5-{4-[4-Fluoro-3-(1-hydroxy-1-methyl-ethyl)-benzyl]-3-oxo-3,4-dihydro-2H-benzo[1,4]oxazin-6-ylmethylene}-thiazolidine-2,4-dione] | 16
Cc1cc(CN2C(=O)COc3ccc(C=C4SC(=S)NC4=O)cc32)ccc1F [Example 306, 4-(4-Fluoro-3-methyl-benzyl)-6-(4-oxo-2-thioxo-thiazolidin-5-ylidenemethyl)-4H-benzo[1,4]oxazin-3-one] | 1
O=C1NC(=O)C(=Cc2ccc3c(c2)N(Cc2cccc(Oc4ccccc4F)c2)C(=O)CO3)S1 [Example 307] | 5
O=C1NC(=O)C(=Cc2ccc3c(c2)N(Cc2ccc(F)c(Cl)c2)C(=O)CO3)S1 [Example 308, 5-[4-(3-Chloro-4-fluoro-benzyl)-3-oxo-3,4-dihydro-2H-benzo[1,4]oxazin-6-ylmethylene]-thiazolidine-2,4-dione] | 1
O=C1NC(=S)SC1=Cc1cc(F)c2c(c1)N(CCOc1ccc(F)cc1)C(=O)CO2 [Example 310, 8-Fluoro-4-[2-(4-fluoro-phenoxy)-ethyl]-6-(4-oxo-2-thioxo-thiazolidin-5-ylidenemethyl)-4H-benzo[1,4]oxazin-3-one] | 9
O=C1NC(=S)SC1=Cc1ccc2c(c1)N(Cc1ccc(F)c(F)c1)C(=O)CO2 [Example 312, 4-(3,4-Difluoro-benzyl)-6-(4-oxo-2-thioxo-thiazolidin-5-ylidenemethyl)-4H-1,4-benzoxazin-3-one] | 3
COCCN(CCCN1C(=O)COc2c(F)cc(C=C3SC(=S)NC3=O)cc21)CCOC [Example 313] | 35
O=C1NC(=S)SC1=Cc1ccc2c(c1)N(Cc1ccc3nccnc3c1)C(=O)CO2 [Example 314, 6-(4-Oxo-2-thioxo-thiazolidin-5-ylidenemethyl)-4-quinoxalin-6-ylmethyl-4H-benzo[1,4]oxazin-3-one] | 36
O=C1NC(=S)SC1=Cc1cc(F)c2c(c1)N(Cc1ccc3nccnc3c1)C(=O)CO2 [Example 315, 8-Fluoro-6-(4-Oxo-2-thioxo-thiazolidin-5-ylidenemethyl)-4-quinoxalin-6-ylmethyl-4H-benzo[1,4]oxazin-3-one; Compound with Ethane-1,2-diamine] | 44
O=C1COc2ccc(C=C3SC(=S)N(c4ccccc4)C3=O)cc2N1Cc1ccc(Cl)s1 [Example 316, 4-(5-Chloro-thiophen-2-ylmethyl)6-(4-oxo-3-phenyl-2-thioxo-thiazolidin-5-ylidenemethyl)-4H-benzo[1,4]oxazin-3-one] | 3700
Cc1cc(CN2C(=O)COc3ccc(C=C4SC(=S)NC4=O)cc32)c(C)o1 [Example 317, 4-(2,5-Dimethyl-furan-3-ylmethyl)-6-(4-oxo-2-thioxo-thiazolidin-5-ylidenemethyl)-4H-benzo[1,4]oxazin-3-one] | 21
Cc1cc(CN2C(=O)COc3c(F)cc(C=C4SC(=S)NC4=O)cc32)c(C)o1 [Example 318, 4-(2,5-Dimethyl-furan-3-ylmethyl)-8-fluoro-6-(4-oxo-2-thioxo-thiazolidin-5-ylidenemethyl)-4H-benzo[1,4]oxazin-3-one] | 25
O=C1NC(=S)SC1=Cc1cc(F)c2c(c1)N(Cc1ccc(Cl)s1)C(=O)CO2 [Example 319, 4-(5-Chloro-thiophen-2-ylmethyl)-8-fluoro-6-(4-oxo-2-thioxo-thiazolidin-5-ylidenemethyl)-4H-benzo[1,4]oxazin-3-one] | 5
Cc1cc(CN2C(=O)COc3ccc(C=C4SC(=S)N(CC(=O)O)C4=O)cc32)c(C(F)(F)F)o1 [Example 321, {5-[4-(5-Methyl-2-triflouromethyl-furan-3-ylmethyl)-3-oxo-3,4-dihydro-2H-benzo[1,4]oxazin-6-ylmethylene]-4-oxo-2-thioxo-thiazolidin-3-yl}-acetic acid; Compound with ethane-1,2-diamine] | 9730
O=C1NC(=S)SC1=Cc1ccc2c(c1)N(Cc1ccc(Cl)s1)C(=O)CO2 [Example 322, 4-(5-Chloro-thiophen-2-ylmethyl)-6-(4-oxo-2-thioxo-thiazolidin-5-ylidenemethyl)-4H-benzo[1,4]oxazin-3-one] | 3
O=C1NC(=S)SC1=Cc1ccc2c(c1)N(Cc1cnc3ccccc3c1)C(=O)CO2 [Example 323, 6-(4-Oxo-2-thioxo-thiazolidin-5-ylidenemethyl)-4-quinolin-3-ylmethyl-4H-benzo[1,4]oxazin-3-one] | 29
Cc1cc(CN2C(=O)COc3ccc(C=C4SC(=S)NC4=O)cc32)c(C(F)(F)F)o1 [Example 324, 4-(5-Methyl-2-triflouromethyl-furan-3-ylmethyl)-6-(4-oxo-2-thioxo-thiazolidin-5-ylidenemethyl)-4H-benzo[1,4]oxazin-3-one] | 33
Cc1cc(CN2C(=O)COc3c(F)cc(C=C4SC(=S)NC4=O)cc32)nn1C(C)(C)C [Example 325, 4-(1-tert-Butyl-5-methyl-1H-pyrazol-3-ylmethyl)-8-flouro-6-(4-oxo-2-thioxo-thiazolidin-5-ylidenemethyl)-4H-benzo[1,4]oxazin-3-one] | 18
Cc1cc(CN2C(=O)COc3ccc(C=C4SC(=S)NC4=O)cc32)nn1C(C)(C)C [Example 326, 4-(1-tert-Butyl-5-methyl-1H-pyrazol-3-ylmethyl)-6-(4-oxo-2-hioxo-thiazolidin-5-ylidenemethyl)-4H-benzo[1,4]oxazin-3-one] | 25

Other lines, results leading:

IC50 [nM] | SMILES
245 | CC(C)(C)c1cc(CN2C(=O)COc3ccc(C=C4SC(=S)NC4=O)cc32)n(Cc2ccccc2)n1 [Example 327, 4-(2-Benzyl-5-tert-butyl-2H-pyrazol-3-ylmethyl)-6-(4-oxo-2-thioxo-thiazolidin-5-ylidenemethyl)-4H-benzo[1,4]oxazin-3-one]
6 | O=C1NC(=S)SC1=Cc1cc(F)c2c(c1)N(Cc1ccc3ncccc3c1)C(=O)CO2 [Example 328, 8-Fluoro-6-(4-oxo-2-thioxo-thiazolidin-5-ylidenemethyl)-4-quinolin-6-ylmethyl-4H-1,4-benzoxazin-3-one]
28 | Cc1cc(CN2C(=O)COc3ccc(C=C4SC(=S)NC4=O)cc32)nn1C [Example 329, 4-(1,5-Dimethyl-1H-pyrazol-3-ylmethyl)-6-(4-oxo-2-thioxo-thiazolidin-5-ylidenemethyl)-4H-1,4-benzoxazin-3-one]
47 | O=C1NC(=S)SC1=Cc1cc(F)c2c(c1)N(Cc1cncc(Cl)c1)C(=O)CO2 [Example 330, 4-(5-Chloro-pyridin-3-ylmethyl)-8-fluoro-6-(4-oxo-2-thioxo-thiazolidin-5-ylidenemethyl)-4H-1,4-benzoxazin-3-one]
9 | CC(C)(O)c1cc(CN2C(=O)COc3c(F)cc(C=C4SC(=S)NC4=O)cc32)ccc1Cl [Example 331, 4-[4-Chloro-3-(1-hydroxy-1-methyl-ethyl)-benzyl]-8-fluoro-6-(4-oxo-2-thioxo-thiazolidin-5-ylidenemethyl)-4H-1,4-benzoxazin-3-one; Compound with Ethane-1,2-diamine]
7 | CC(C)(O)c1cc(CN2C(=O)COc3ccc(C=C4SC(=S)NC4=O)cc32)ccc1Cl [Example 332, 4-[4-Chloro-3-(1-hydroxy-1-methyl-ethyl)-benzyl]-6-(4-oxo-2-thioxo-thiazolidin-5-ylidenemethyl)-4H-1,4-benzoxazin-3-one; compound with ethane-1,2-diamine]
7 | O=C1NC(=S)SC1=Cc1ccc2c(c1)N(Cc1cccs1)C(=O)CO2 [Example 333, 6-(4-Oxo-2-thioxo-thiazolidin-5-ylidenemethyl)-4-thiophen-2-ylmethyl-4H-1,4-benzoxazin-3-one]
25 | Cc1cncc(CN2C(=O)COc3ccc(C=C4SC(=S)NC4=O)cc32)c1 [Example 334, 4-(5-Methyl-pyridin-3-ylmethyl)-6-(4-oxo-2-thioxo-thiazolidin-5-ylidenemethyl)-4H-1,4-benzoxazin-3-one]
34 | CC(C)n1cnc2cc(CN3C(=O)COc4ccc(C=C5SC(=S)NC5=O)cc43)ccc21 [Example 335, 4-(1-Isopropyl-1H-benzimidazol-5-ylmethyl)-6-(4-oxo-2-thioxo-thiazolidin-5-ylidenemethyl)-4H-1,4-benzoxazin-3-one]
9 | CC(C)n1cnc2ccc(CN3C(=O)COc4ccc(C=C5SC(=S)NC5=O)cc43)cc21 [Example 336, 4-(3-Isopropyl-3H-benzimidazol-5-ylmethyl)-6-(4-oxo-2-thioxo-thiazolidin-5-ylidenemethyl)-4H-1,4-benzoxazin-3-one]
8 | O=C1NC(=S)SC1=Cc1ccc2c(c1)N(Cc1ccc3ncccc3c1)C(=O)CO2 [Example 337, 6-(4-Oxo-2-thioxo-thiazolidin-5-ylidenemethyl)-4-quinolin-6-ylmethyl-4H-1,4-benzoxazin-3-one]

Source: patent publication US7205295B2, “Benzoxazin-3-ones and derivatives thereof as therapeutic agents” (Warner-Lambert Company LLC, priority 2002, dated 2007)
